Where “and” joins values, the source holds several entries; their conditions need not be identical. Equal entries are not always repeated.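 Protocol summary: plate cells (96-well), add compound at 5 concentrations, incubate 48 h, interpolate endpoints linearly. The concentration for 50% growth inhibition is given as GI50. TGI marks complete inhibition of growth.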
How the values were obtained:
Assay in all cases: DTP human tumour cell line panel, 48 h
SF-295 CNS = tested on: SF-295 CNS
OVCAR-5 ovarian = tested on: OVCAR-5 ovarian
HOP-62 NSCLC = tested on: HOP-62 NSCLC
HCT-116 colon = tested on: HCT-116 colon
NCI-H522 lung = tested on: NCI-H522 lung
SNB-19 CNS = tested on: SNB-19 CNS
NCI-H23 lung = tested on: NCI-H23 lung
COLO 205 colon = tested on: COLO 205 colon
HS 578T breast = tested on: HS 578T breast
MOLT-4 leukemia = tested on: MOLT-4 leukemia

Row | SMILES | TGI (SF-295 CNS) [µM] | TGI (OVCAR-5 ovarian) [µM] | TGI (HOP-62 NSCLC) [µM] | TGI (HCT-116 colon) | TGI (NCI-H522 lung) | TGI (SNB-19 CNS) [µM] | TGI (NCI-H23 lung) [µM] | TGI (COLO 205 colon) | TGI (HS 578T breast) [µM] | TGI (MOLT-4 leukemia) | GI50 (SF-295 CNS) [µM] | GI50 (OVCAR-5 ovarian) [µM] | GI50 (HOP-62 NSCLC) [µM] | GI50 (HCT-116 colon) [µM] | GI50 (NCI-H522 lung) [µM] | GI50 (SNB-19 CNS) [µM] | GI50 (NCI-H23 lung) [µM] | GI50 (COLO 205 colon) [µM] | GI50 (HS 578T breast) [µM] | GI50 (MOLT-4 leukemia) [µM]
1 | Cc1ccc(S(=O)(=O)N/N=C/c2c(O)ccc3ccccc23)cc1 | 57.5 | 88.2 | > 100 | 45.6 µM | 45.6 µM | > 100 | 83.2 | 37.4 µM | 46.8 | > 100 µM | – | – | – | – | – | – | – | – | – | –
2 | O=[N+]([O-])O.[Cu+2].[NH-]CC[NH-].[NH-]CC[NH-] | > 10 | > 10 | > 10 | > 10 µM | > 10 µM | > 10 | > 10 | > 10 µM | > 10 | > 10 µM | > 10 | > 10 | > 10 | > 10 | > 10 | > 10 | > 10 | > 10 | > 10 | > 10
3 | COc1ccc(C(=O)OC2C(OC3C(O)COC(O[C@H]4C[C@H]5[C@@H]6CC=C7C[C@@H](O)CC[C@]7(C)[C@H]6CC[C@]5(C)[C@H]4[C@H](C)C(=O)CCC(C)C)C3OC(N)=O)OCC(O)C2O)cc1 (some centres not stated) | 0.00922 | 6.48 | 1.7 | 3.56 µM | 0.485 µM | 3.2 | 4.81 | 0.507 µM | 0.37 | 0.0212 µM | < 0.003 | 0.555 | 0.0247 | 0.0198 | 0.0658 | 0.381 | 0.375 | 0.072 | < 0.003 | 0.00564
4 | CC1CCC(NC(=O)N(CCCl)N=O)CC1 (configuration not stated) | 36.3 | 105 | 93 | 90.4 µM and 85.6 µM | 31.6 µM and 90 µM | 110 | 129 | 43.3 µM and 60.2 µM | 155 | 40.2 µM and 66.6 µM | 53.7 | – | 71.2 | 30.2 | 14.1 | 55 | 61.8 | 23.1 | – | –
5 | CC(C)(C)OC(=O)N1CCN(CCn2cc(C(F)(F)F)c3c(Cl)ncnc32)CC1 | 28.1 | 38.7 | 4.91 | 3.15 µM | 29.9 µM | 3.72 | 4.32 | 37.9 µM | 8.29 | 6.6 µM | 14.5 | 17.1 | 2.19 | 1.68 | 15.1 | 2 | 2 | 18.4 | 2.84 | 2.62
6 | C[C@H]1[C@H](C)CC[C@]2(CO)CC[C@]3(C)C(=CC[C@@H]4[C@@]5(C)CCCNC(C)(C)[C@@H]5CC[C@]43C)[C@H]12 | 3.06 | 3.18 | 3.43 | 2.81 µM | 3.32 µM | 3.43 | 3.26 | 3.46 µM | 4.86 | 3.15 µM | 1.64 | 1.69 | 1.81 | 1.49 | 1.71 | 1.86 | 1.65 | 1.74 | 2.05 | 1.37
7 | N#CC(NC12CC3CC(CC(C3)C1)C2)c1ccc2c(c1)OCO2 (configuration not stated) | > 100 | > 100 | > 100 | > 100 µM | > 100 µM | > 100 | > 100 | > 100 µM | > 100 | > 100 µM | – | – | – | – | – | – | – | – | – | –
8 | c1ccc2[nH]c(-c3ccc(-c4nccc5c4[nH]c4ccccc45)cc3)nc2c1 | 4 | 6.47 | 10.8 | 10.4 µM | 5.04 µM | 30.4 | 17.7 | 6.22 µM | 5.93 | 6.11 µM | 1.92 | 2.43 | 2.8 | 2.83 | 2.06 | 4.21 | 3.47 | 2.32 | 2.23 | 2.32
9 | CC(C)(C)n1cc(-c2ccnc(NCCCNS(=O)(=O)c3ccc(C(F)(F)F)cc3)c2)c(-c2cccc(O)c2)n1 | 3.12 | 3.4 | 3.85 | 3.08 µM | 3.98 µM | 3.83 | 3.18 | 3.78 µM | 4.84 | 6.92 µM | 1.69 | 1.81 | 1.93 | 1.55 | 1.99 | 1.98 | 1.67 | 1.95 | 1.98 | 2.33
10 | C=C(C)C(=O)O[C@H]1CC(=C)[C@@H]2C[C@H](O)[C@](O)(CCl)[C@@H]2[C@H]2OC(=O)C(=C)[C@@H]21 | 26.4 | 29.6 | 23.3 | 3.19 µM | 4 µM | 32.2 | 25.7 | 3.66 µM | 46.1 | 3.84 µM | 12.3 | 14.8 | 10.5 | 1.67 | 1.91 | 16.6 | 11.6 | 1.87 | 11.6 | 1.44
11 | Cc1nn2c(/C=C3\C(=O)Nc4ccc(Cl)cc43)c(C)nc2s1 | > 100 | > 100 | > 100 | > 100 µM | 39 µM | > 100 | > 100 | > 100 µM | > 100 | > 100 µM | 16.7 | > 100 | 61.1 | 30.2 | 6 | 26.9 | 77.1 | 13.3 | 61.8 | 35.6
12 | Nc1c(C(=O)c2cccc(-c3ccncc3)c2)cnn1-c1ccc(F)cc1F | > 25 | > 25 | > 25 | > 25 µM | > 18.7 µM | > 25 | > 25 | > 21.4 µM | > 25 | > 25 µM | 8.36 | > 25 | 9.3 | 6.25 | 5.73 | > 19.3 | 10.7 | 2.09 | > 25 | 8.39
13 | COc1cc(OC(=O)c2ccccc2)cc2c1C(=O)C=CC2=O | 32.1 | 54.5 | 58.6 | 13.5 µM | 12.4 µM | 56.4 | 33.3 | 33.7 µM | 69.3 | 14.6 µM | – | – | – | – | – | – | – | – | – | –

From PubChem BioAssay (NCI)
